This note sets out measurements from PMC4701174, “Novel Characteristics of Trypanosoma brucei Guanosine 5'-monophosphate Reductase Distinct from Host Animals” (PLoS Neglected Tropical Diseases, 2016).

Usually IC50 stands for the midpoint of a concentration-inhibition curve. A high value points to weaker potency in that assay. By Ki is commonly meant a measure of affinity in units of concentration, obtained from inhibition or displacement. By Km is commonly meant the concentration of substrate that gives half-maximal velocity.

Series [1] deals with T1, T. brucei guanosine 5'-monophosphate reductase (TbGMPR) (Trypanosoma brucei, UniProt Q57ZS7).
T1 construct: gene Tb05.1P6.110; recombinant TbGMPR coding region, GST fusion in E. coli, tag cleaved with PreScission protease
Kind of series: NADPH consumption at […] nm, Hill fit. Format: biochemical.

Series [2] concerns the target T2, HsGMPR1 (human GMPR type 1) (Homo sapiens, UniProt P36959).
T2 construct: recombinant
T2 sequence (P36959 1-345): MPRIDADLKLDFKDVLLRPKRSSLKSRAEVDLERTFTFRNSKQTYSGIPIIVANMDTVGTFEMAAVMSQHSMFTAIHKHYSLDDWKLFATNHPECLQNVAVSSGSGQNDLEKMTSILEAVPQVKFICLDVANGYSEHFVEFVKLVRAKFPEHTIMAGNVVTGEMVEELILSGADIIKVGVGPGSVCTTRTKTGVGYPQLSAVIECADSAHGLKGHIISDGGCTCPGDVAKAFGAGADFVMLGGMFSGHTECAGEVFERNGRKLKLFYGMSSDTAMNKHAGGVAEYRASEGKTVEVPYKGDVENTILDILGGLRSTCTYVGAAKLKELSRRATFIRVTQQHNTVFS
Put plainly: NADPH consumption at […] nm, Hill fit. Format: biochemical.

For series [3], the target named is T3, HsGMPR2 (human GMPR type 2) (Homo sapiens, UniProt Q9P2T1).
T3 construct: gene GMPR2; recombinant
T3 sequence (Q9P2T1 1-348): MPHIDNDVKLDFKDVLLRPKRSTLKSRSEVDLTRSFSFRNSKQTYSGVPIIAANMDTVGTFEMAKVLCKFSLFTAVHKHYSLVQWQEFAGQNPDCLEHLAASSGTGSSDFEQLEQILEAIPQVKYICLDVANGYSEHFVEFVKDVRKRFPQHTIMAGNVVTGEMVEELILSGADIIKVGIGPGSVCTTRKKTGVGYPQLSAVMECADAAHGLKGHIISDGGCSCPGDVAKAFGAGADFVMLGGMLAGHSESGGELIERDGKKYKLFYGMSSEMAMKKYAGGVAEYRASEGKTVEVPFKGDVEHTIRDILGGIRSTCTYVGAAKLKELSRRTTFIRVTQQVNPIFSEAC
Kind of series: NADPH consumption at […] nm, Hill fit. Format: biochemical.

Series [4] has as its target T1, T. brucei guanosine 5'-monophosphate reductase (TbGMPR). Kind of series: NADPH consumption at […] nm, Lineweaver-Burk, competitive inhibition fit (IC50 […]). Format: biochemical.
Substrate in series [5]: Nc1nc2c(ncn2[C@@H]2O[C@H](COP(=O)(O)O)[C@@H](O)[C@H]2O)c(=O)[nH]1
Kind of series: purified protein. Format: biochemical, Homo sapiens. To be noted: NADPH.

Substrate in series [6]: NC(=O)C1=CN([C@@H]2O[C@H](COP(=O)(O)OP(=O)(O)OC[C@H]3O[C@@H](n4cnc5c(N)ncnc54)[C@H](OP(=O)(O)O)[C@@H]3O)[C@@H](O)[C@H]2O)C=CC1
Kind of series: purified protein. Conditions: varied: cofactor.

Substrate in series [7]: Nc1nc2c(ncn2[C@@H]2O[C@H](COP(=O)(O)O)[C@@H](O)[C@H]2O)c(=O)[nH]1
Put plainly: purified protein. Format: biochemical, Trypanosoma brucei. To be noted: NADPH.

Substrate in series [8]: NC(=O)C1=CN([C@@H]2O[C@H](COP(=O)(O)OP(=O)(O)OC[C@H]3O[C@@H](n4cnc5c(N)ncnc54)[C@H](OP(=O)(O)O)[C@@H]3O)[C@@H](O)[C@H]2O)C=CC1
Put plainly: purified protein. Format: biochemical, Trypanosoma brucei. Conditions: varied: cofactor.

Consider `NC(=O)c1ncn([C@@H]2O[C@H](COP(=O)(O)O)[C@@H](O)[C@H]2O)c1O` [MZP, mizoribine 5’-monophosphate], for which the IC50 in series [1] is 23.7 ± 1.9 µM; in series [2], 120 ± 16.1 µM; in series [3], 69.3 ± 7.8 µM.

Regarding `NC(=O)c1ncn([C@@H]2O[C@H](COP(=O)(O)O)[C@@H](O)[C@H]2O)n1` [RMP, ribavirin 5'-monophosphate], the Ki in series [4] was 4.46 ± 0.46 µM.

B1: HsGMPR1 (human GMPR type 1) (Homo sapiens) (protein)
chain: MPRIDADLKLDFKDVLLRPKRSSLKSRAEVDLERTFTFRNSKQTYSGIPIIVANMDTVGTFEMAAVMSQHSMFTAIHKHYSLDDWKLFATNHPECLQNVAVSSGSGQNDLEKMTSILEAVPQVKFICLDVANGYSEHFVEFVKLVRAKFPEHTIMAGNVVTGEMVEELILSGADIIKVGVGPGSVCTTRTKTGVGYPQLSAVIECADSAHGLKGHIISDGGCTCPGDVAKAFGAGADFVMLGGMFSGHTECAGEVFERNGRKLKLFYGMSSDTAMNKHAGGVAEYRASEGKTVEVPYKGDVENTILDILGGLRSTCTYVGAAKLKELSRRATFIRVTQQHNTVFS
notes: recombinant
As for B1, the figures for the Michaelis-Menten constant (Km) in “purified protein [5]” and in the series “purified protein [6]” were 22.1 ± 2.2 µM and 34.8 ± 4.3 µM, respectively.

B2: T. brucei guanosine 5'-monophosphate reductase (TbGMPR) (Trypanosoma brucei brucei TREU927) (protein)
chain: MSFNESASIPTGLTYDDVLIIPQHSRVTSRKEVNTTTRLSRNVKLSIPIVASNMDTVCEQRMAVAMAREGGIGILHRFCSIEEQCAMLREVKRAQSFLIESPRIILPHETAREAWEGLNWKGRVGGVGCLLVVNCKNERKLLGIITRHDLKLADESTTVESLMTPVDKMVVSTNTSISLEEVTHLMRKGRTANVPIVGQNGQLLYLVTLSDVVKLRKNKQASLDSRGRLLVGAAVGVKKDDMNRAIRLVEAGADVLVVDIAHGHSDLCINMVKRLKGDPRTASVDIIAGNIASAEAAEALIDAGADGLKIGVGPGSICITRLVAGAGVPQLSAVLACTRVARRRGVPCIADGGLRTSGDISKAIGAGADTVMLGNMLAGTDEAPGRVLVKDGQKVKIIRGMAGFGANLSKAERERTQDEDVFSSLVPEGVEGSVACKGPVGPIVRQLVGGLRSGMSYSGAKSIEEMQRRTRFVRMTGAGLRESGSHGVAKL
notes: recombinant TbGMPR coding region, GST fusion in E. coli, tag cleaved with PreScission protease
Regarding B2, the Km in the series “purified protein [7]” turned out to be 89.3 ± 9.0 µM; in “purified protein [8]” it was 12.3 ± 0.8 µM.
